Assay results as given in ChEMBL document CHEMBL1141952, “Conformationally restricted analogs of Combretastatin A-4 derived from SU5416” (Bioorg Med Chem Lett, 2005).

Tests used:
MCF7 = assay: Antiproliferative activity against estrogen-dependent breast cancer MCF7 cell line by MTS assay; format: functional, cell-based; details: Homo sapiens
PC-3 = assay: Antiproliferative activity against androgen-independent prostate cancer PC3 cell line by MTS assay; format: functional, cell-based; details: Homo sapiens
Tubulin = Tubulin (Sus scrofa, UniProt P02554+P02550); assay: Inhibition of porcine brain tubulin polymerization by GTP-induced assembly
MDA-MB-231 = assay: Antiproliferative activity against estrogen-independent breast cancer MDA-MB-231 cell line by MTS assay; format: functional, cell-based; details: Homo sapiens

Row | IC50 (MCF7) [µM] | IC50 (PC-3) [µM] | IC50 (Tubulin) [µM] | IC50 (MDA-MB-231) [µM] | Compound
1 | 25.7 | > 50 | > 40 | 17.5 | O=C1Nc2ccccc2/C1=C\c1ccc(O)cc1
2 | 0.23 | 0.64 | 18 | 2.6 | COc1ccc2c(c1)NC(=O)/C2=C/c1ccc(O)cc1
3 | 0.0007 | 0.0082 | 4.5 | 0.0009 | COc1ccc2c(c1)NC(=O)/C2=C/c1cc(OC)c(OC)c(OC)c1
4 | 8.6 | 19.5 | > 40 | 4.3 | O=C1Nc2cc(O)ccc2/C1=C\c1cccc(O)c1
5 | 19.7 | 44.7 | > 40 | 9.4 | O=C1Nc2cc(O)ccc2/C1=C\c1ccc(O)cc1
6 | 31.4 | > 50 | > 40 | 16.9 | O=C1Nc2ccccc2/C1=C\c1cccc(O)c1
7 | 0.39 | 0.54 | 9.1 | 1.4 | COc1ccc2c(c1)NC(=O)/C2=C/c1cccc(O)c1

Row | Compound | IC50 (MCF7) [µM] | IC50 (PC-3) [µM] | IC50 (Tubulin) [µM] | IC50 (MDA-MB-231) [µM]
8 | COc1cc([C@@H]2c3cc4c(cc3[C@H](O)[C@H]3COC(=O)[C@H]23)OCO4)cc(OC)c1OC [PODOFILOX] | – | 0.013 | – | 0.008
